Tested on: Phakopsora pachyrhizi
Assay: Soybean leaf disk test against Asian soybean rust (Example 1)
Format: in vivo
Settings: soybean leaf disks, assessed 12 days after inoculation; for inhibition at 0.74 ppm / inhibition at 2.22 ppm / inhibition at 0.25 ppm: Phakopsora pachyrhizi, foliar, 288 h, component (B) alone; for (A) inhibition: Aureobasidin A alone
Experimental: The compositions according to the invention are tested for their biological (fungicidal) activity using application rates wherein the component (A) is applied at a rate of from 25 g a.i./ha to 500 g a.i./ha in association with 10 g a.i./ha to 500 g a.i./ha of component (B).
The compositions according to the invention are tested for their biological (fungicidal) activity as dimethylsulfoxide (DMSO) solutions the protocols as set forth in the examples below. A standard description of the liquid culture tests is provided in Example 1.
Compounds to be tested were prepared as DMSO solutions (max. 10 mg/mL) which were diluted to the appropriate concentration with 0.025% TWEEN 20® surfactant just before spraying. Soybean leaf disks were placed on agar in multiwell plates (24-well format) and sprayed with test solutions. After 24 hours drying, the leaf disks were inoculated with a spore suspension of the fungus. The disease severity of a compound or mixture was assessed 12 days after inoculation and described as percent activity relative to the untreated check leaf disks.

| Molecule | inhibition at 0.74 ppm [%] | inhibition at 2.22 ppm [%] | inhibition at 0.25 ppm [%] | (A) inhibition (2.5 ppm) [%] | (A) inhibition (7.4 ppm) [%] |
| --- | --- | --- | --- | --- | --- |
| CCOC(=O)c1cnn(Cc2ccc(-c3noc(C(F)(F)F)n3)cc2)c1 [B.01, ethyl 1-[[4-[5-(trifluoromethyl)-1,2,4-oxadiazol-3-yl]phenyl]methyl]pyrazole-4-carboxylate] | 50 |  |  |  |  |
| CON(Cc1ccc(-c2noc(C(F)(F)F)n2)cc1)C(=O)C1CC1 [B.02, N-methoxy-N-[[4-[5-(trifluoromethyl)-1,2,4-oxadiazol-3-yl]phenyl]methyl]cyclopropanecarboxamide] | 10 | 35 |  |  |  |
| COC(C)C(=O)N(Cc1ccc(-c2noc(C(F)(F)F)n2)cc1)OC (stereo not shown) [B.03, N,2-dimethoxy-N-[[4-[5-(trifluoromethyl)-1,2,4-oxadiazol-3-yl]phenyl]methyl]propanamide] | 10 | 35 |  |  |  |
| CCN(Cc1ccc(-c2noc(C(F)(F)F)n2)cc1)C(=O)C(C)C [B.04, N-ethyl-2-methyl-N-[[4-[5-(trifluoromethyl)-1,2,4-oxadiazol-3-yl]phenyl]methyl]propanamide] | 0 | 35 | 0 |  |  |
| CNC(=O)N(Cc1ccc(-c2noc(C(F)(F)F)n2)cc1)OC [B.05, 1-methoxy-3-methyl-1-[[4-[5-(trifluoromethyl)-1,2,4-oxadiazol-3-yl]phenyl]methyl]urea] | 50 |  | 0 |  |  |
| CONC(=O)N(Cc1ccc(-c2noc(C(F)(F)F)n2)cc1)OC [B.06, 1,3-dimethoxy-1-[[4-[5-(trifluoromethyl)-1,2,4-oxadiazol-3-yl]phenyl]methyl]urea] | 0 |  | 0 |  |  |
| CCNC(=O)N(Cc1ccc(-c2noc(C(F)(F)F)n2)cc1)OC [B.07, 3-ethyl-1-methoxy-1-[[4-[5-(trifluoromethyl)-1,2,4-oxadiazol-3-yl]phenyl]methyl]urea] | 35 |  | 0 |  |  |
| CCC(=O)NCc1ccc(-c2noc(C(F)(F)F)n2)cc1 [B.08, N-[[4-[5-(trifluoromethyl)-1,2,4-oxadiazol-3-yl]phenyl]methyl]propanamide] | 20 | 60 | 0 |  |  |
| Aureobasidin A |  |  |  | 62 | 88 |
